For assay [1], the system named is KB-31 epidermoid carcinoma cells. Description: Cell growth inhibition, KB-31 epidermoid carcinoma cells (methylene blue staining). In kind it is cell-based, human. The note with it: KB-31 cells, 4 days incubation with compound. The procedure:
(§1) Stock solutions of the test compounds (10 mM) are prepared in DMSO and stored at −20° C. Human KB-31 and (multidrug-resistant, P-gp170 overexpressing) KB-8511 epidermoid carcinoma cells originate from Dr. M. Baker, Roswell Park Memorial institute (Buffalo, N.Y., USA) (description: see also Akiyama et al., Somat. Cell. Mol. Genetics 11, 117-126 (1985) and Fojo A., et al., Cancer Res. 45, 3002-3007 (1985) -KB-31 and KB-8511 are both derivatives of the KB cell line (ATCC). KB 31 cells may be cultivated in monolayers using RPMI-1640 medium (Amimed, BioConcept, Allschwil, Switzerland) with 10% foetal calf serum (Amimed, BioConcept, Allschwil, Switzerland), L-glutamine (Amimed, BioConcept, Allschwil, Switzerland), penicillin (50 units/ml) and streptomycin (50 μg/ml (Amimed, BioConcept, Allschwil, Switzerland). KB-8511 is a variant derived from the KB-31 cell line, which was obtained using colchichine treatment cycles, and has an approximately 40 times relative resistance to colchichine compared with KB-31 cells (Akiyama et al., Somat. Cell. Mol. Genetics 11, 117-126 (1985) and Fojo A., et al., Cancer Res. 45, 3002-3007 (1985)). The cells are incubated at 37° C. in an incubator with 5% v/v CO2 and at 80% relative humidity with RPMI-1640 medium complemented as described above. The cells are seeded in a quantity of 1.5×10^3 cells/well in 96-well microtitre plates, and incubated over night. Serial dilutions of the test compounds in culture medium are added on day 1. The plates are then incubated for a further 4 days, after which the cells are fixed with 3.3% v/v glutaraldehyde, washed with water and dyed with 0.05% w/v methylene blue. After washing, the dye is eluted with 3% HCl and the optical density measured at 665 nm with a SpectraMax 340 (Molecular Devices, Sunnyvale, Calif.). IC50 values are determined by adaptation of mathematical curves, using the SoftProprogramme (Version 2.0 or later; Molecular Devices, Sunnyvale, Calif.) and using the formula [(OD treated)−(OD start)]/[(OD control)−(OD start)]×100. […]

The test system of assay [2] is KB-8511 (multidrug-resistant, P-gp170 overexpressing) epidermoid carcinoma cells. As to the kind of experiment: Cell growth inhibition, multidrug-resistant KB-8511 epidermoid carcinoma cells (methylene blue staining). The conditions noted are these: KB-8511 cells (P-gp170 overexpressing), 4 days incubation with compound. The format is cell-based, human. The procedure: as §1

For assay [3], the target named is T1, porcine microtubule protein (tubulin plus microtubule-associated proteins) (Sus scrofa, UniProt P02554).
T1 construct: extracted from pigs' brain by two cycles of temperature-dependent depolymerisation/polymerisation; from tissue; host or cells: pig brain
T1 sequence (P02554 whole entry): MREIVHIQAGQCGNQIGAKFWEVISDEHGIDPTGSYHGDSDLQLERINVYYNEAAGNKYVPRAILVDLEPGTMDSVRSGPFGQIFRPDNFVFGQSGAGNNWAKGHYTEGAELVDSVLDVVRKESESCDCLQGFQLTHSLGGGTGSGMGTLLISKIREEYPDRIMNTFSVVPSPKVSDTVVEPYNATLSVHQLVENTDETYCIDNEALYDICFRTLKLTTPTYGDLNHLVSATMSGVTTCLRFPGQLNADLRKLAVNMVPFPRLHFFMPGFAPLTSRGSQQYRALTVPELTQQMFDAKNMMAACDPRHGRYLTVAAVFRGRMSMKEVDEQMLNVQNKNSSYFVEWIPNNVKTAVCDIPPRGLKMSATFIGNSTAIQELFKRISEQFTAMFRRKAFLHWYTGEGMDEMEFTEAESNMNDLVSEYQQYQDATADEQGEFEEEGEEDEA
T1 sequence (P02550 whole entry partner): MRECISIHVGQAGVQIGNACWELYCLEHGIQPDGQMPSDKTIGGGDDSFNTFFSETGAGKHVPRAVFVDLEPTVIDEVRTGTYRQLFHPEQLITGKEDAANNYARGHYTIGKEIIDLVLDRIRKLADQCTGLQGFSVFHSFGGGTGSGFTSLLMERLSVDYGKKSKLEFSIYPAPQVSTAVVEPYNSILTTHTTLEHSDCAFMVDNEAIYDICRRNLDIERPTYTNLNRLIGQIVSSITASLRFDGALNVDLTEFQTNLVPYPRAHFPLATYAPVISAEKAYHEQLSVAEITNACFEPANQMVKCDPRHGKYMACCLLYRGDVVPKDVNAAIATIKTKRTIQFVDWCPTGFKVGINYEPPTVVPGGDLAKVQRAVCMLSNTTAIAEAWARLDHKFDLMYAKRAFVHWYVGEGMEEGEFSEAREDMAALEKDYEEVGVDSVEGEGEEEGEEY
As to the kind of experiment: Test-compound-induced polymerisation of porcine microtubule protein (inhibition of microtubule depolymerisation). The format is biochemical, pig. The conditions noted are these: test compound 4 uM, porcine microtubule protein (Batch #9) 0.8 mg/ml; 25 μM epothilone B = 100% polymerization, vehicle = 0%.
Protocol: Stock solutions of the test compounds (10 mM) are prepared in DMSO and stored at −20° C. […] The degree of test-compound-induced polymerisation of porcine microtubule protein is determined basically as already known (see Lin et al., Cancer Chem. Pharm. 1996; 38:136-140). To summarise, a working aliquot of porcine microtubule protein is rapidly thawed and then diluted to 2× final desired concentration in ice-cold 2× MEM buffer (200 ml MES, 2 mM EGTA, 2 mM MgCl2, pH 6.7) [MES=2-morpholinoethanesulphonic acid, EGTA=ethylene glycol-bis-2(2-aminoethyl)-tetraacetic acid]. Drug or vehicle (DMSO, final concentration 5%) is diluted in water at room temperature to 2× the final desired concentration in a 0.5 ml eppendorf tube, and then put on ice. Following addition of an equal volume (50 μl) of microtubule protein (2× final desired concentration in 2× MEM buffer), the polymerization reaction is started by transferring the incubation mixtures to a room-temperature water bath for 5 min. The reaction mixtures are then placed in an Eppendorf microcentrifuge (model 5415 C) and incubated for an additional 15 min at room temperature. The samples are then centrifuged for 15 min at 14,000 rpm at room temperature. As an indirect measure for microtubule protein polymerization, the protein concentration of the supernatant (containing the remainder of non-polymerized, soluble microtubule protein) is determined by the Lowry method (DC Assay Kit, Bio-Rad Laboratories, Hercules, Calif.) and the optical density of the colour reaction is measured at 750 nm with a SpectraMax 340 photometer (Molecular Devices, Sunnydale, Calif.). […] Vehicle-treated samples serve as negative control (0% polymerization).
Final assay concentrations of test compound and porcine microtubule protein (Batch #9) were 4 uM and 0.8 mg/ml, respectively.

This note sets out measurements from patent publication US7317100B2, “Epothilone derivatives” (Novartis AG, priority 2002, dated 2008).

As for `CC(=O)O[C@H]1C(=O)[C@@]2(C)[C@H]([C@H](OC(=O)c3ccccc3)[C@]3(O)C[C@H](OC(=O)[C@H](O)[C@@H](NC(=O)c4ccccc4)c4ccccc4)C(C)=C1C3(C)C)[C@]1(OC(C)=O)CO[C@@H]1C[C@@H]2O` [Paclitaxel], the 50% inhibitory concentration (IC50) in assay [1] (Homo sapiens, KB 3-1, 96 h) turned out to be 3.76 ± 0.52 nM; in assay [2] (Homo sapiens, 96 h), 739 ± 86 nM.

Regarding `C/C(=C\c1csc(C)n1)C1CC2OC2(C)CCCC(C)C(O)C(C)C(=O)C(C)C(O)CC(=O)O1` (stereo not drawn) [Example 1, C4-Desmethyl-Epothilone B], the “Tubulin Polymerisation (% of control)” value in assay [3] is 93.3 % of control. The IC50 in assay [1] is 0.49 ± 0.05 nM; in assay [2] it was 0.8 ± 0.16 nM.

Take `C/C(=C\c1csc(C)n1)[C@@H]1C[C@@H]2O[C@@H]2CCC[C@H](C)[C@H](O)[C@@H](C)C(=O)C(C)(C)[C@@H](O)CC(=O)O1` [Epothilone A]: the “Tubulin Polymerisation (% of control)” value in assay [3] is reported as 76.5 % of control.

With `C/C(=C\c1csc(C)n1)[C@@H]1C[C@@H]2O[C@]2(C)CCC[C@H](C)[C@H](O)[C@@H](C)C(=O)C(C)(C)[C@@H](O)CC(=O)O1` [Epothilone B], the “Tubulin Polymerisation (% of control)” value in assay [3] is on record as 93.3 % of control. In addition, the IC50 in assay [1] was 0.28 ± 0.04 nM; in assay [2], 0.2 ± 0.04 nM.

For orientation: IC50 means the concentration that inhibits the measured activity by half.
